Results on 33 substances are retold here after publication PMC10878854, “Identification, structural characterization, and molecular dynamic simulation of ACE inhibitory peptides in whey hydrolysates from Chinese Rushan cheese by-product” (Food Chemistry: X, 2024).

No end group written: not given here.

Test system in one series: not given
Test: not given
Conditions: not given
The substance H-KWEKPF-OH registered a β-turn content of 41.7%. Still for that read-out and setting: the result for H-FDRPFL-OH reads 39.3%.

Test system in another series: not given
Test: not given
Conditions: not given
The source holds these as a separate data set.
In turn, H-KWEKPF-OH came in with a α-helix content of 20.2%. The same measure, in the same setting: the same measure for H-FDRPFL-OH: 22.4%.

Test system in the next series: not given
Test: not given
Conditions: not given
The source holds these as a separate data set.
On to H-KWEKPF-OH, for which the β-sheet content was found to be 38%. Same read-out and setting: the same measure for H-FDRPFL-OH: 38.3%.

A further series deals with T1, ACE (Oryctolagus cuniculus, UniProt P12822).
T1 sequence (P12822 34-1310): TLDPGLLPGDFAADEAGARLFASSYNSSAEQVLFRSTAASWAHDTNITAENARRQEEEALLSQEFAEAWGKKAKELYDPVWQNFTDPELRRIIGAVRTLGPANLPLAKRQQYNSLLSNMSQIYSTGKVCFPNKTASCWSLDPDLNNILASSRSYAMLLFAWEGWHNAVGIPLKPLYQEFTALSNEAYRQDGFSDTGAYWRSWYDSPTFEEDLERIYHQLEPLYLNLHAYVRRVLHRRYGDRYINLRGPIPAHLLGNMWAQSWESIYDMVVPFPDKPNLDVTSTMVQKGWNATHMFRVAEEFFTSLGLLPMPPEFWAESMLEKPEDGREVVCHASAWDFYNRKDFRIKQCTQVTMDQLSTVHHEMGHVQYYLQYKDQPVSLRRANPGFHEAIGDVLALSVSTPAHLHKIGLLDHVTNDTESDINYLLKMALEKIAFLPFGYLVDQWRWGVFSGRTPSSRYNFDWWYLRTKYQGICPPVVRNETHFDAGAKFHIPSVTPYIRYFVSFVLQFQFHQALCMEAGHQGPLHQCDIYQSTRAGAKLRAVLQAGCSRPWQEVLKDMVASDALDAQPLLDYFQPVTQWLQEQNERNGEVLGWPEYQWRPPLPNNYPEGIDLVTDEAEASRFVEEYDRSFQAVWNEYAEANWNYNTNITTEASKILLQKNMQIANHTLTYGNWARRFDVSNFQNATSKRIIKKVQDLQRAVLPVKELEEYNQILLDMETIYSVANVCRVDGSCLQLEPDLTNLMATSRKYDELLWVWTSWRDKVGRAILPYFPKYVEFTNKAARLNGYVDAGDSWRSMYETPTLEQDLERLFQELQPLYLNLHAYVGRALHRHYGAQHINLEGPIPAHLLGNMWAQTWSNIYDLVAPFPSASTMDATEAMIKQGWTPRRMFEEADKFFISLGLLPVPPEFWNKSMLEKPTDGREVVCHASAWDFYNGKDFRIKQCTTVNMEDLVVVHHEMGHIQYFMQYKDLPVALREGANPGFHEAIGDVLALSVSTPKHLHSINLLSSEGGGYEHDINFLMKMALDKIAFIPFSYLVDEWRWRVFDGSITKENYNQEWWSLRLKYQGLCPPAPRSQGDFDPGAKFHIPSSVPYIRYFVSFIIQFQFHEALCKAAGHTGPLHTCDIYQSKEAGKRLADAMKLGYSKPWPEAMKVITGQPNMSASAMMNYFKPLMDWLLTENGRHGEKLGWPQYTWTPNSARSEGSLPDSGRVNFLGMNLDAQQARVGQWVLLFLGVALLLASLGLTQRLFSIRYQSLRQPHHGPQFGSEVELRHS
In words: In-vitro ACE inhibitory activity (HHL substrate, hippuric acid absorbance at 228 nm). The series is classed as biochemical. The settings on record: synthetic peptides; 5 mM HHL, 25 mU/mL ACE, 37 °C 30 min, absorbance 228 nm; calculated from regression equations; mean ± SD, n = 3. As for the experimental part:
ACE inhibitory activity of whey hydrolysate fractions with different MW was assessed by a method reported by [Cushman and Cheung (1971)]. In brief, 30 μL of whey hydrolysate fraction was added to 80 μL of 5 mM HHL and incubated at 37 °C for 10 min. Then, 20 μL of 25 mU/ mL ACE was added to the mixture. The reaction was performed at 37 °C for 30 min and then stopped by adding 250 μL of 1 M HCl. Subsequently, 1.7 mL of ethyl acetate was added to the mixture to extract the released hippuric acid. After vigorous stirring for 10 s, the samples were submitted to centrifugation (TLG20M, Changsha Maijiasen Instrument Equipment Co., Ltd., China) at 5,000 rcf at 4 °C for 15 min. Then 1.4 mL of the organic phase was transferred to a fresh test tube. Ethyl acetate was evaporated by placing samples in a boiling water bath. The residue was dissolved in 3 mL of deionized water, and absorbance was measured at 228 nm by enzyme marker (Multiskan FC, Thermo Fisher Scientific). The following formula was used to calculate ACE inhibition rate: ACE-inhibition rate\%:[1-(C-D)/(A-B)]×100% Where A represents the absorbance with ACE but without the sample; B the absorbance without ACE and the sample; C the absorbance in the presence of ACE and the sample; and D the absorbance with the sample but without ACE.
Take DDFFHR [DDFFHR]: the IC50 was greater than 1.2 mM. On the same count and under the same terms, the result for YDFYPR [YDFYPR] reads greater than 1.16 mM. For GKWEKPF [GKWEKPF], the IC50 is greater than 1.12 mM.

Test system in another series: not given
Test: not given
The conditions noted are these: 90 % homology to known functional peptides; ref BIOPEP, EROP-Moscow, MBPDB databases; cited from earlier work. An excerpt: Supplement mmc2.doc, table 1: Table S2. Bioactive peptides identified in Rushan cheese whey hydrolysates (RCWH). | column: Potential bioactive
Regarding SKVLPVPQ, the Potential bioactive entry was “ACE inhibitor”.

Regarding MAIPPKK, the Potential bioactive entry was “ACE inhibitor”. As for VYPFPGPI, the Potential bioactive result is recorded as “Antihypertensive”. Regarding LKPTPEGDLE, the Potential bioactive result is “Dipeptidyl peptidase IV inhibitor”.

As for YPFPGPIP, the Potential bioactive entry is reported as “ACE inhibitor, Antioxidative”. Consider DKVGINY, for which the Potential bioactive entry is reported as “ACE inhibitor”. In the case of DKVGINYW, the Potential bioactive result is on record as “ACE inhibitor”.

As to KVLPVPQK, the Potential bioactive result was “ACE inhibitor, Antioxidative”. PFPGPIPN: the Potential bioactive entry is given as “ACE inhibitor”.

In the case of VYPFPGPIP, the Potential bioactive entry is “Antihypertensive”. DKIHPF: the Potential bioactive entry is recorded as “ACE inhibitor”. As for AVPYPQR, the Potential bioactive entry is listed as “ACE inhibitor, Antimicrobial, Antioxidative”.

For YPFPGPI, the Potential bioactive entry is “ACE inhibitor, Antioxidative, Anticancer”.

A further series has as its target T1, ACE.
Test: not given
The settings on record: ACEIPs with mixed inhibitory patterns; ref Chen et al., 2020; Xie et al., 2022; cited from earlier work.
For “SLPEW [literature mixed-pattern ACEIP derived from alpha-lactalbumin]”, the ACE inhibition pattern entry was “mixed”.

As to “VSLPEW [literature mixed-pattern ACEIP derived from alpha-lactalbumin]”, the ACE inhibition pattern entry is on record as “mixed”. As to “LSGYGP [literature mixed-pattern ACEIP derived from tilapia]”, the ACE inhibition pattern entry is listed as “mixed”.

The series is the same for the next values; noted with them: food-derived non-competitive ACEIPs; ref Xie et al., 2022; Paisansak et al., 2021; cited from earlier work.
As for KIGSRSRFDVT, the ACE inhibition pattern result is “non-competitive”. Take VGINYW: the ACE inhibition pattern entry was “non-competitive”.

For GYGGVSLPEW, the ACE inhibition pattern result is “non-competitive”. On to GVSLPEW, for which the ACE inhibition pattern result is reported as “non-competitive”.

Still in this series, the particulars now being: peptides derived from eel bone; ref Shao, 2022; cited from earlier work.
In the case of GPMGPR, the “IC50 (ACE inhibitory activity)” value is recorded as 2.247 mg/mL. For the substance GPSGAPGPR, the “IC50 (ACE inhibitory activity)” value is given as 1.022 mg/mL.

Take PMGPR: the “IC50 (ACE inhibitory activity)” value is listed as 1.47 mg/mL. As to GPIGPPGPR, the “IC50 (ACE inhibitory activity)” value is 1.441 mg/mL. With GGPGPSGPR, the “IC50 (ACE inhibitory activity)” value is listed as 0.758 mg/mL. On to GPAGPR, for which the “IC50 (ACE inhibitory activity)” value is listed as 1.246 mg/mL.

The same series, now with this note: peptides derived from large yellow croaker; ref Li, 2021; cited from earlier work.
LGYSF: the “IC50 (ACE inhibitory activity)” value is recorded as 0.51 mg/mL. Consider LLAGGW, for which the “IC50 (ACE inhibitory activity)” value was 0.49 mg/mL.

A word on the IC50: it is the midpoint of a concentration-inhibition curve.
